Results as given in patent US20090281166A1, “Treatment of Cancer by Inhibition of HSP27” (THE UNIVERSITY OF BRITISH COLUMBIA, priority 2008, published 2009).

What was measured:
Akt = assay: Western blot after siAkt or GSK690693C treatment in LNCaP cells; type: cell-based, human
Experimental: Twenty-four hours after culturing in 10 cm dishes at 7×10^5 cells per dish, Hsp27 siRNA (siHsp27) or scrambled siRNA (Scr) duplexes were transfected into cells. Briefly, the RNA duplex was diluted in Opti-MEN® serum-free medium and Oligofectamin (Invitrogen-Life Technologies). After 20 min, cells were transfected at 37? for 4-6 h and then were placed in standard medium. Forty-eight hours after transfection, cells were harvested and were analyzed in each experiment. To knockdown Akt, Akt1 siRNA (siAkt) duplexes (Cell signaling) were used. Twenty-four hours after transfection for 24 h, cells were harvested and then were analyzed as well. An siRNA duplex corresponding to the human Hsp27 site (sequence of one strand 5′-[…]-3′, SEQ ID NO: 2; Dharmacon, Lafayette, Colo.) was used. […]
Proteins (20-40 μg/lane) extracted in RIPA buffer from cells, were electrophoresed in SDS-polyacrylamide gels (SDS/PAGE) and transferred to PDVF membranes (Milipore, Bedford, Mass.) by a wet transfer method. […] Bands were detected by using an enhanced chemiluminescence Western blotting analysis system (Amersham Life Science, Arlington Heights, Ill.).
LNCaPHsp27 and LNCaP with empty vector (LNCaPmock) cells were assessed 24 h after culture. Cell lysates were collected 24 hours after culture and bands were detected with the indicated antibodies by Western blot assay. […]

PC-3 cells = assay: Combination treatment with siHsp27 and LY-294002 in PC-3 cells; type: cell-based, human
Experimental: LY-294002 (2-(4-morpholinyl)-8-phenyl-4H-1-benzopyran-4-one) is a selective phosphatidylinositol 3-kinase (PI3K) inhibitor. Combination treatment with siHsp27 and LY-294002 treatment was assessed in PC-3 cells.

hsp27 [1] = conditions: Tanaka et al., Int J Gynecol Cancer 2004; cited from earlier work
Hsp27 [2] = conditions: preclinical studies, cited from earlier work

With `CCn1c(-c2nonc2N)nc2c(C#CC(C)(C)O)ncc(OC[C@H]3CCCNC3)c21` [GSK690693C] the “phospho-Akt level (Western blot)” value (Akt) was “up-regulation of phospho-Akt” and the “phospho-GSK-3B and phospho-PEA15 levels (Western blot)” value (Akt) was “dose-dependent decrease of phospho-GSK-3B and phospho-PEA15”.

In the case of `O=c1cc(N2CCOCC2)oc2c(-c3ccccc3)cccc12` [LY-294002, 2-(4-morpholinyl)-8-phenyl-4H-1-benzopyran-4-one], the PTEN expression (PC-3 cells) is reported as “reduced PTEN expression” and the “effect on growth inhibition by Hsp27 knockdown” value (PC-3 cells; combination with siHsp27) is reported as “reduced the growth inhibitory effect by Hsp27 knockdown in dose-dependent manner”.

For `CC(=O)O[C@H]1C(=O)[C@@]2(C)[C@H]([C@H](OC(=O)c3ccccc3)[C@]3(O)C[C@H](OC(=O)[C@H](O)[C@@H](NC(=O)c4ccccc4)c4ccccc4)C(C)=C1C3(C)C)[C@]1(OC(C)=O)CO[C@@H]1C[C@@H]2O` [Paclitaxel], the hsp27 expression (hsp27 [1]) is given as “inhibitor of hsp27 expression”.

For “OGX-427: antisense oligonucleotide targeting hsp27, gggacgcggc gctcggtcat, SEQ ID No. 1, described in U.S. Pat. No. 7,101,991 (antisense GGGACGCGGCGCTCGGTCAT; listed as DNA, chemistry not given here; listed as Homo sapiens)”, the chemosensitization (Hsp27 [2]; combination with cytotoxic drugs) is listed as “acts as a chemosensitizer in combination with several cytotoxic drugs including docetaxel”, the anti-tumor activity (Hsp27 [2]; single agent) is listed as “has single agent anti-tumor activity” and the “apoptosis in human cancer cell lines” value (Hsp27 [2]) is listed as “induces apoptosis in several human cancer cell lines”. For the same compound, the “levels of Hsp27” value (Hsp27 [2]) was “significantly decreases levels of Hsp27”.
